Data: PubChem BioAssay AID248 (DTP/NCI, 2004)
Values joined by “and” are separate entries in the source; they are usually repeats but may differ in a detail not shown here. Equal entries are not always repeated. Toxic doses and inconclusive results are not listed. Rule as the data show it: active = T/C of 150% or more; inactive = T/C below 125%.

Tested on: L1210 leukemia ip in BDF1 mice, survival T/C
Experiment: NCI In Vivo Anticancer Drug Screen. Data for tumor model L1210 Leukemia (intraperitoneal) in B6D2F1 (BDF1) mice
Conditions: endpoint: mean survival time, higher = longer survival
Summary of the method: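 Antitumor effect is assessed in tumor-bearing animals. Survival in the compound arm is compared with a vehicle-dosed control arm and expressed as their quotient.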

[1] = dose: 100.0 mg/kg/injection, schedule: Q01DX009 (ip), vehicle: saline
[2] = dose: 200.0 mg/kg/injection, schedule: Q01DX009 (ip), vehicle: saline
[3] = dose: 400.0 mg/kg/injection, schedule: Q01DX009 (ip), vehicle: saline
[4] = dose: 100.0 mg/kg/injection, schedule: Q01DX001 (ip), vehicle: carboxymethylcellulose (CMC)
[5] = dose: 200.0 mg/kg/injection, schedule: Q01DX001 (ip), vehicle: carboxymethylcellulose (CMC)
[6] = dose: 100.0 mg/kg/injection, schedule: Q04DX002 (ip), vehicle: Klucel (hydroxypropylcellulose) (HPC)
[7] = dose: 200.0 mg/kg/injection, schedule: Q04DX002 (ip), vehicle: Klucel (hydroxypropylcellulose) (HPC)
[8] = dose: 400.0 mg/kg/injection, schedule: Q04DX002 (ip), vehicle: Klucel (hydroxypropylcellulose) (HPC)
[9] = dose: 100.0 mg/kg/injection, schedule: Q01DX001 (ip), vehicle: saline
[10] = dose: 200.0 mg/kg/injection, schedule: Q01DX001 (ip), vehicle: saline
[11] = dose: 100.0 mg/kg/injection, schedule: Q04DX003 (ip), vehicle: saline with Tween-80
[12] = dose: 200.0 mg/kg/injection, schedule: Q04DX003 (ip), vehicle: saline with Tween-80
[13] = dose: 400.0 mg/kg/injection, schedule: Q01DX001 (ip), vehicle: saline
[14] = dose: 100.0 mg/kg/injection, schedule: Q04DX003 (ip), vehicle: Klucel (hydroxypropylcellulose) (HPC)
[15] = dose: 200.0 mg/kg/injection, schedule: Q04DX003 (ip), vehicle: Klucel (hydroxypropylcellulose) (HPC)
[16] = dose: 400.0 mg/kg/injection, schedule: Q04DX003 (ip), vehicle: Klucel (hydroxypropylcellulose) (HPC)
[17] = dose: 400.0 mg/kg/injection, schedule: Q01DX001 (ip), vehicle: carboxymethylcellulose (CMC)
[18] = dose: 100.0 mg/kg/injection, schedule: Q04DX003 (ip), vehicle: saline

Measured: T/C

CC(C)(C)C(=O)CC(=O)C(C)(C)C.CC(C)(C)C(=O)CC(=O)C(C)(C)C.CC(C)(C)C(=O)CC(=O)C(C)(C)C.[Sm]
inactive: dose: 100.0 mg/kg/injection, schedule: Q01DX005 (ip), vehicle: saline 112 % of control | [1] 106 % of control | dose: 100.0 mg/kg/injection, schedule: Q04DX002 (ip), vehicle: saline 92 % of control | dose: 200.0 mg/kg/injection, schedule: Q01DX005 (ip), vehicle: saline 109 % of control | [2] 103 % of control | dose: 200.0 mg/kg/injection, schedule: Q04DX002 (ip), vehicle: saline 95 % of control | dose: 400.0 mg/kg/injection, schedule: Q01DX005 (ip), vehicle: saline 98 % of control | [3] 98 % of control | dose: 400.0 mg/kg/injection, schedule: Q04DX002 (ip), vehicle: saline 103 % of control

CC1=C2CCCC3(OCCO3)C2(C)CCC1=O (centres undefined)
inactive: dose: 100.0 mg/kg/injection, schedule: Q04DX002 (ip), vehicle: other 98 % of control | dose: 200.0 mg/kg/injection, schedule: Q04DX002 (ip), vehicle: other 109 % of control | dose: 400.0 mg/kg/injection, schedule: Q04DX002 (ip), vehicle: other 102 % of control

N/C(=N\N=C\c1ccc(-c2ccccc2)cc1)N[N+](=O)[O-]
inactive: dose: 50.0 mg/kg/injection, schedule: Q01DX001 (ip), vehicle: carboxymethylcellulose (CMC) 104 % of control | [4] 100 % of control | [5] 93 % of control

CCCCCC#CC(=O)OCCC
inactive: [6] 97 % of control | [7] 101 % of control | [8] 101 % of control

NC(C(=O)O)c1ccc(F)cc1 (centres undefined)
inactive: dose: 50.0 mg/kg/injection, schedule: Q01DX001 (ip), vehicle: saline 104 % of control | [9] 104 % of control | [10] 101 % of control

c1ccc(C(=C2CC34CCCC23CC4)c2ccccc2)cc1 (centres undefined)
inactive: dose: 37.5 mg/kg/injection, schedule: Q04DX002 (ip), vehicle: saline with Tween-80 95 % of control | dose: 75.0 mg/kg/injection, schedule: Q04DX002 (ip), vehicle: saline with Tween-80 98 % of control | dose: 150.0 mg/kg/injection, schedule: Q04DX002 (ip), vehicle: saline with Tween-80 91 % of control | dose: 300.0 mg/kg/injection, schedule: Q04DX002 (ip), vehicle: saline with Tween-80 91 % of control

C=CC[N+]1=C(C)C(C)(C)c2ccccc21
inactive: [11] 95 % of control | [12] 96 % of control

OC(CCl)C(O)C(O)C(O)CCl (centres undefined)
inactive: dose: 44.0 mg/kg/injection, schedule: Q01DX001 (ip), vehicle: saline 103 % of control | dose: 66.0 mg/kg/injection, schedule: Q01DX001 (ip), vehicle: saline 103 % of control | dose: 100.0 mg/kg/injection, schedule: Q01DX001 (ip), vehicle: saline with Tween-80 95 % of control | [9] 103 % of control | dose: 150.0 mg/kg/injection, schedule: Q01DX001 (ip), vehicle: saline 96 % of control | dose: 200.0 mg/kg/injection, schedule: Q01DX001 (ip), vehicle: saline with Tween-80 92 % of control | [10] 101 % of control | dose: 400.0 mg/kg/injection, schedule: Q01DX001 (ip), vehicle: saline with Tween-80 89 % of control | [13] 97 % of control

CC[n+]1cn(-c2ccc(S(=O)(=O)[O-])cc2)nn1
inactive: [9] 101 % of control | [10] 110 % of control

CC(=O)[C@H]1CC[C@H]2[C@@H]3C[C@H](F)C4=CC(=O)CC[C@]4(C)[C@@]3(F)[C@@H](O)C[C@]12C
inactive: dose: 50.0 mg/kg/injection, schedule: Q01DX009 (sc), vehicle: steriod suspending solution 124 % of control | dose: 100.0 mg/kg/injection, schedule: Q01DX009 (sc), vehicle: steriod suspending solution 101 % of control | dose: 100.0 mg/kg/injection, schedule: Q04DX003 (sc), vehicle: steriod suspending solution 97 % of control | dose: 200.0 mg/kg/injection, schedule: Q01DX009 (sc), vehicle: steriod suspending solution 104 % of control | dose: 200.0 mg/kg/injection, schedule: Q04DX003 (sc), vehicle: steriod suspending solution 105 % of control | dose: 400.0 mg/kg/injection, schedule: Q04DX003 (sc), vehicle: steriod suspending solution 103 % of control

Nc1ccc(C(=O)O)c(Cl)c1
inactive: [14] 100 % of control | [15] 99 % of control | [16] 97 % of control

CC(=O)Nc1c(OC(C)=O)ccc2cc(Br)ccc12
inactive: dose: 100.0 mg/kg/injection, schedule: Q01DX015 (ip), vehicle: saline 92 % of control | dose: 200.0 mg/kg/injection, schedule: Q01DX015 (ip), vehicle: saline 100 % of control | dose: 400.0 mg/kg/injection, schedule: Q01DX015 (ip), vehicle: saline 92 % of control | dose: 800.0 mg/kg/injection, schedule: Q01DX015 (ip), vehicle: saline 96 % of control

O=C1N(Cc2ccccc2)C(=O)C(Cc2ccccc2)(Cc2ccccc2)C(=O)N1Cc1ccccc1
inactive: [4] 101 % of control | [5] 97 % of control | [17] 95 % of control

Cc1ccc(C(c2ccc(C)cc2)C(Cl)(Cl)Cl)cc1
inactive: dose: 100.0 mg/kg/injection, schedule: Q01DX001 (ip), vehicle: saline sonified 93 % of control | dose: 200.0 mg/kg/injection, schedule: Q01DX001 (ip), vehicle: saline sonified 96 % of control | dose: 400.0 mg/kg/injection, schedule: Q01DX001 (ip), vehicle: saline sonified 88 % of control

Cc1cccc(C)c1NC(=S)N(C)C
inactive: dose: 25.0 mg/kg/injection, schedule: Q01DX009 (ip), vehicle: saline 101 % of control | dose: 50.0 mg/kg/injection, schedule: Q01DX009 (ip), vehicle: saline 103 % of control | [18] 95 % of control

COc1c(C)ccc([N+](=O)[O-])c1OC
inactive: [11] 94 % of control | [12] 97 % of control | dose: 400.0 mg/kg/injection, schedule: Q04DX003 (ip), vehicle: saline with Tween-80 97 % of control

CC(C)c1ncc([N+](=O)[O-])n1C
inactive: dose: 25.0 mg/kg/injection, schedule: Q04DX003 (ip), vehicle: Klucel (hydroxypropylcellulose) (HPC) 97 % of control | dose: 50.0 mg/kg/injection, schedule: Q04DX003 (ip), vehicle: Klucel (hydroxypropylcellulose) (HPC) 95 % of control | [4] 103 % of control | dose: 100.0 mg/kg/injection, schedule: Q01DX009 (ip), vehicle: Klucel (hydroxypropylcellulose) (HPC) 102 % of control | [14] 97 % of control and 114 % of control | [5] 101 % of control | [15] 104 % of control | [17] 101 % of control | dose: 400.0 mg/kg/injection, schedule: Q01DX009 (ip), vehicle: Klucel (hydroxypropylcellulose) (HPC) 91 % of control | [16] 106 % of control

COCCOCC1CO1 (centres undefined)
inactive: [1] 100 % of control | [2] 105 % of control | [3] 100 % of control

C=C/C=N/Nc1ccc([N+](=O)[O-])cc1
inactive: [6] 98 % of control | [7] 92 % of control | [8] 95 % of control

CC(NS(=O)(=O)Cc1ccccc1)C(=O)O (centres undefined)
inactive: dose: 100.0 mg/kg/injection, schedule: Q01DX001 (ip), vehicle: other 96 % of control | dose: 100.0 mg/kg/injection, schedule: Q04DX003 (ip), vehicle: other 107 % of control | dose: 200.0 mg/kg/injection, schedule: Q01DX001 (ip), vehicle: other 95 % of control | dose: 200.0 mg/kg/injection, schedule: Q04DX003 (ip), vehicle: other 96 % of control | dose: 400.0 mg/kg/injection, schedule: Q01DX001 (ip), vehicle: other 104 % of control | dose: 400.0 mg/kg/injection, schedule: Q04DX003 (ip), vehicle: other 106 % of control

OCC(CO)(CO)CBr
inactive: [1] 96 % of control | [18] 103 % of control | [2] 105 % of control | dose: 200.0 mg/kg/injection, schedule: Q04DX003 (ip), vehicle: saline 98 % of control | [3] 104 % of control | dose: 400.0 mg/kg/injection, schedule: Q04DX003 (ip), vehicle: saline 104 % of control

Clc1ccccc1/C=N/N1CCN(/N=C/c2ccccc2Cl)CC1
inactive: [9] 97 % of control | [10] 95 % of control | [13] 101 % of control
